In patent US11702418B2, “SOS1 inhibitors” (priority 2019, dated 2023):
Where a name gives a salt, the structure may show the parent alone. Read-outs that look alike come from different tables or passages of the source.

How the values were obtained:
[1] = molecular target: recombinant human SOS1 polypeptide (amino acids 560-1049) (Homo sapiens (Human), UniProt Q07889); assay: biochemical; format: binding; conditions: read-out: Ki, Inhibition of Labeled Tracer Binding to SOS1
Protocol: The ability of a compound of Formula (I) to bind to SOS1 was measured using a HTRF displacement assay. […] After a 1-hour incubation at room temperature, the HTRF signal was measured using Clairostar plate reader (BMG Labtech) according to the manufacturer's instructions. Excitation filter EX-TR was used, and emission 1 was detected at 650-610 nm and emission 2 detected at 620-610 nm. The HTRF ratio was calculated using the formula: [emission 1/emission 2]*10000.
Background signals were calculated from well with a 10 μM inhibitor, known to inhibit 100% at that concentration. The background subtracted signals were converted to % binding relative to DMSO controls. Data were analyzed using XLFIT software (IDBS) using a Morrison equation for competitive binding and Ki's were generated compound of Formula (I).

pERK in MKN1 cells = assay: cells; format: cell-based; conditions: Homo sapiens
[2] = HTRF displacement, Cy5 labelled tracer, Morrison equation for competitive binding
[3] = MKN-1, pERK inhibition, In-Cell Western, MKN1 or H358 cells (Table 24 does not say which), 0.5-1 hour incubation, read-out: IC50

Chain of recombinant human SOS1 polypeptide (amino acids 560-1049) (Q07889 560-1049): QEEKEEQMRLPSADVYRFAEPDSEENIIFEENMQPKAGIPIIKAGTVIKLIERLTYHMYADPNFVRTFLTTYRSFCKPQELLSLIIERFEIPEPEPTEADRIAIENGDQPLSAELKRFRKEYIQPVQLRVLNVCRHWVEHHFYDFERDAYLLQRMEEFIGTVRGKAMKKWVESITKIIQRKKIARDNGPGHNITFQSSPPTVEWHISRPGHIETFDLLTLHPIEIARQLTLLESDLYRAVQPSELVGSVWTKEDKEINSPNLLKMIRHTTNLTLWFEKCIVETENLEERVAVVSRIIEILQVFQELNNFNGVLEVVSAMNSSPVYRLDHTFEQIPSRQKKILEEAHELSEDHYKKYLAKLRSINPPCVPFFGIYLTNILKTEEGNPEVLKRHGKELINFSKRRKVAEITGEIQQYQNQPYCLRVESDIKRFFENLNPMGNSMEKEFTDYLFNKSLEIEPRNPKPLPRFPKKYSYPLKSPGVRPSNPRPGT

SMILES | Ki [1] | IC50 (pERK in MKN1 cells; MKN-1) | Ki [1, 2] | IC50 (pERK in MKN1 cells; [3])
Cc1c([C@@H](C)Nc2nnc(C)c3ccc(N4CCC5(CCN(C)C5)CC4)cc23)cccc1C(F)(F)F [Example 10-37, (R)-4-methyl-N-(1-(2-methyl-3-(trifluoromethyl)phenyl)ethyl)-7-(2-methyl-2,8-diazaspiro[4.5]decan-8-yl)phthalazin-1-amine hydrochloride salt] | 0.24 nM | 55 nM |  | 
Cc1c([C@@H](C)Nc2nnc(C)c3ccc(N4CCC5(CCNC5=O)CC4)cc23)cccc1C(F)(F)F [Example 10-38, (R)-8-(1-methyl-4-((1-(2-methyl-3-(trifluoromethyl)phenyl)ethyl)amino)phthalazin-6-yl)-2,8-diazaspiro[4.5]decan-1-one] |  |  | 0.71 nM | 29 nM
Cc1c([C@@H](C)Nc2nnc(C)c3ccc(N4CCC5(CCNCC5)C4=O)cc23)cccc1C(F)(F)F [Example 10-39, (R)-2-(1-methyl-4-((1-(2-methyl-3-(trifluoromethyl)phenyl)ethyl)amino)phthalazin-6-yl)-2,8-diazaspiro[4.5]decan-1-one hydrochloride salt] | 1.49 nM | 110 nM |  | 
Cc1c([C@@H](C)Nc2nnc(C)c3ccc(N4CCC5(CCN(C)C5=O)CC4)cc23)cccc1C(F)(F)F [Example 10-40, (R)-2-methyl-8-(1-methyl-4-((1-(2-methyl-3-(trifluoromethyl)phenyl)ethyl)amino)phthalazin-6-yl)-2,8-diazaspiro[4.5]decan-1-one] |  |  | 0.43 nM | 11 nM
Cc1c([C@@H](C)Nc2nnc(C)c3ccc(N4CC5(CCN(C)C5)C4)cc23)cccc1C(F)(F)F [Example 10-41, (R)-4-methyl-N-(1-(2-methyl-3-(trifluoromethyl)phenyl)ethyl)-7-(6-methyl-2,6-diazaspiro[3.4]octan-2-yl)phthalazin-1-amine hydrochloride salt] | 0.52 nM | 30 nM |  | 
Cc1c([C@@H](C)Nc2nnc(C)c3ccc(N4CCC(C)(N(C)C)CC4)cc23)cccc1C(F)(F)F [Example 10-42, (R)-7-(4-(dimethylamino)-4-methylpiperidin-1-yl)-4-methyl-N-(1-(2-methyl-3-(trifluoromethyl)phenyl)ethyl)phthalazin-1-amine hydrochloride salt] | 0.31 nM | 43 nM |  | 
Cc1nnc(N[C@H](C)c2cccc3ccccc23)c2cc(N3CCNCC3)ccc12 [Example 10-43, (R)-4-methyl-N-(1-(naphthalen-1-yl)ethyl)-7-(piperazin-1-yl)phthalazin-1-amine formate salt] | 1.13 nM | 138 nM |  | 
Cc1c(C(F)F)cccc1[C@@H](C)Nc1nnc(C)c2ccc(N3CCC(N4CCC4)CC3)cc12 [Example 10-44, (R)-7-(4-(azetidin-1-yl)piperidin-1-yl)-N-(1-(3-(difluoromethyl)-2-methylphenyl)ethyl)-4-methylphthalazin-1-amine hydrochloride salt] | 0.51 nM | 53 nM |  | 
Cc1c([C@@H](C)Nc2nnc(C)c3ccc(N4CC(N(C)C)C4)cc23)cccc1C(F)(F)F [Example 10-46, (R)-7-(3-(dimethylamino)azetidin-1-yl)-4-methyl-N-(1-(2-methyl-3-(trifluoromethyl)phenyl)ethyl)phthalazin-1-amine formate salt] | 1.13 nM | 157 nM |  | 
Cc1c([C@@H](C)Nc2nnc(C)c3ccc(N4CC(C)(O)C4)cc23)cccc1C(F)(F)F [Example 10-47, (R)-3-methyl-1-(1-methyl-4-((1-(2-methyl-3-(trifluoromethyl)phenyl)ethyl)amino)phthalazin-6-yl)azetidin-3-ol] |  |  | 1.19 nM | 55 nM
Cc1c([C@@H](C)Nc2nnc(C)c3ccc(N4CC(O)C4)cc23)cccc1C(F)(F)F [Example 10-48, (R)-1-(1-methyl-4-((1-(2-methyl-3-(trifluoromethyl)phenyl)ethyl)amino)phthalazin-6-yl)azetidin-3-ol] |  |  | 1.35 nM | 75 nM
Cc1c([C@@H](C)Nc2nnc(C)c3ccc(N4CCC(N5CCC(F)(F)C5)CC4)cc23)cccc1C(F)(F)F [Example 10-49, (R)-7-(4-(3,3-difluoropyrrolidin-1-yl)piperidin-1-yl)-4-methyl-N-(1-(2-methyl-3-(trifluoromethyl)phenyl)ethyl)phthalazin-1-amine Formate salt] | 0.56 nM | 107 nM |  | 
Cc1nnc(N[C@H](C)c2cc(F)cc(C(F)(F)F)c2)c2cc(N3CCOCC3)ccc12 [Example 10-50, (R)-N-(1-(3-fluoro-5-(trifluoromethyl)phenyl)ethyl)-4-methyl-7-morpholinophthalazin-1-amine] |  |  | 3.74 nM | 205 nM
Cc1c(C#N)cccc1[C@@H](C)Nc1nnc(C)c2ccc(N3CCOCC3)cc12 [Example 10-51, (R)-2-methyl-3-(1-((4-methyl-7-morpholinophthalazin-1-yl)amino)ethyl)benzonitrile] |  |  | 1.4 nM | 39 nM
Cc1nnc(N[C@H](C)c2cc(F)cc(C#N)c2)c2cc(N3CCOCC3)ccc12 [Example 10-52, (R)-3-fluoro-5-(1-((4-methyl-7-morpholinophthalazin-1-yl)amino)ethyl)benzonitrile] |  |  | 44.5 nM | 286 nM
Cc1c(C#N)cccc1[C@@H](C)Nc1nnc(C)c2ccc(N3C[C@H]4C[C@@H]3CO4)cc12 [Example 10-54, 3-((R)-1-((7-((1R,4R)-2-oxa-5-azabicyclo[2.2.1]heptan-5-yl)-4-methylphthalazin-1-yl)amino)ethyl)-2-methylbenzonitrile Formate salt] | 1.34 nM | 48 nM |  | 
Cc1c(C#N)cccc1[C@@H](C)Nc1nnc(C)c2ccc(N3CCNCC3)cc12 [Example 10-55, (R)-2-methyl-3-(1-((4-methyl-7-(piperazin-1-yl)phthalazin-1-yl)amino)ethyl)benzonitrile Formate salt] | 0.76 nM | 76 nM |  | 
Cc1c(C#N)cccc1[C@@H](C)Nc1nnc(C)c2ccc(N3CCN4CCOC[C@@H]4C3)cc12 [Example 10-56, 3-((R)-1-((7-((S)-hexahydropyrazino[2,1-c][1,4]oxazin-8(1H)-yl)-4-methylphthalazin-1-yl)amino)ethyl)-2-methylbenzonitrile Formate salt] | 1.59 nM | 26 nM |  | 
Cc1c(C#N)cccc1[C@@H](C)Nc1nnc(C)c2ccc(N3CCC(N(C)C)CC3)cc12 [Example 10-57, (R)-3-(1-((7-(4-(dimethylamino)piperidin-1-yl)-4-methylphthalazin-1-yl)amino)ethyl)-2-methylbenzonitrile Formate salt] | 0.75 nM | 46 nM |  | 
Cc1c(C#N)cccc1[C@@H](C)Nc1nnc(C)c2ccc(N3CC(C)(O)C3)cc12 [Example 10-58, (R)-3-(1-((7-(3-hydroxy-3-methylazetidin-1-yl)-4-methylphthalazin-1-yl)amino)ethyl)-2-methylbenzonitrile] |  |  | 5.78 nM | 52 nM
Cc1nnc(N[C@H](C)c2ccc(F)cc2Cl)c2cc(N3CCOCC3)ccc12 [Example 10-59, (R)-N-(1-(2-chloro-4-fluorophenyl)ethyl)-4-methyl-7-morpholinophthalazin-1-amine Hydrochloride salt] | 30.9 nM | 570 nM |  | 
Cc1cccc(C(C)Nc2nnc(C)c3ccc(N4CCOCC4)cc23)c1Cl (stereo not shown) [Example 10-60, N-(1-(2-chloro-3-methylphenyl)ethyl)-4-methyl-7-morpholinophthalazin-1-amine] |  |  | 2 nM | 961 nM
Cc1cc([C@@H](C)Nc2nnc(C)c3ccc(N4CCOCC4)cc23)cc(C(F)(F)F)c1 [Example 10-61, (R)-4-methyl-N-(1-(3-methyl-5-(trifluoromethyl)phenyl)ethyl)-7-morpholinophthalazin-1-amine] |  |  | 1.61 nM | 57 nM
Cc1c([C@@H](C)Nc2nnc(C)c3ccc(N4CCNC[C@H](F)C4)cc23)cccc1C(F)(F)F [Example 10-62, 7-((S)-6-fluoro-1,4-diazepan-1-yl)-4-methyl-N-((R)-1-(2-methyl-3-(trifluoromethyl)phenyl)ethyl)phthalazin-1-amine Hydrochloride salt] | 0.9 nM | 76 nM |  | 
Cc1c([C@@H](C)Nc2nnc(C)c3ccc(N4CCNC[C@@H](F)C4)cc23)cccc1C(F)(F)F [Example 10-63, 7-((R)-6-fluoro-1,4-diazepan-1-yl)-4-methyl-N-((R)-1-(2-methyl-3-(trifluoromethyl)phenyl)ethyl)phthalazin-1-amine Hydrochloride salt] | 0.54 nM | 50 nM |  | 
Cc1c([C@@H](C)Nc2nnc(C)c3ccc(N4CCNS(=O)(=O)CC4)cc23)cccc1C(F)(F)F [Example 10-64, (R)-5-(1-methyl-4-((1-(2-methyl-3-(trifluoromethyl)phenyl)ethyl)amino)phthalazin-6-yl)-1,2,5-thiadiazepane 1,1-dioxide] |  |  | 1.7 nM | 513 nM
Cc1c(C(F)F)cccc1[C@@H](C)Nc1nnc(C)c2ccc(N3CCOCC3)cc12 [Example 10-65, (R)-N-(1-(3-(difluoromethyl)-2-methylphenyl)ethyl)-4-methyl-7-morpholinophthalazin-1-amine Hydrochloride salt] | 0.95 nM | 23 nM |  | 
Cc1c([C@@H](C)Nc2nnc(C)c3ccc(N4CC(C)(N(C)C)C4)cc23)cccc1C(F)(F)F [Example 10-66, (R)-7-(3-(dimethylamino)-3-methylazetidin-1-yl)-4-methyl-N-(1-(2-methyl-3-(trifluoromethyl)phenyl)ethyl)phthalazin-1-amine] |  |  | 0.78 nM | 108 nM
Cc1c(C#N)cccc1[C@@H](C)Nc1nnc(C)c2ccc(N3CCC(F)(F)CC3)cc12 [Example 10-67, (R)-3-(1-((7-(4,4-difluoropiperidin-1-yl)-4-methylphthalazin-1-yl)amino)ethyl)-2-methylbenzonitrile] |  |  | 2.57 nM | 44 nM
